For this data set, the system named is CCRIS mutagenicity, Ames/micronucleus/aberration tests. Nature of the data set: CCRIS mutagenicity studies.
The mark [1] stands for this setting: Test System: AMES SALMONELLA TYPHIMURIUM, Strain/Indicator: TA98, Metabolic Activation: HAMSTER, LIVER, S-9, AROCLOR 1254 (10%), Method: PREINCUBATION
[2] abbreviates: Test System: AMES SALMONELLA TYPHIMURIUM, Strain/Indicator: TA98, Metabolic Activation: NONE, Method: PREINCUBATION
[3] abbreviates: Test System: AMES SALMONELLA TYPHIMURIUM, Strain/Indicator: TA98, Metabolic Activation: RAT, LIVER, S-9, AROCLOR 1254 (10%), Method: PREINCUBATION
The mark [4] stands for this setting: Test System: AMES SALMONELLA TYPHIMURIUM, Strain/Indicator: TA100, Metabolic Activation: HAMSTER, LIVER, S-9, AROCLOR 1254 (10%), Method: PREINCUBATION
Where [5] appears, read: Test System: AMES SALMONELLA TYPHIMURIUM, Strain/Indicator: TA100, Metabolic Activation: NONE, Method: PREINCUBATION
Setting [6] is: Test System: AMES SALMONELLA TYPHIMURIUM, Strain/Indicator: TA100, Metabolic Activation: RAT, LIVER, S-9, AROCLOR 1254 (10%), Method: PREINCUBATION
Where [7] appears, read: Test System: AMES SALMONELLA TYPHIMURIUM, Strain/Indicator: TA1535, Metabolic Activation: HAMSTER, LIVER, S-9, AROCLOR 1254 (10%), Method: PREINCUBATION
Where [8] appears, read: Test System: AMES SALMONELLA TYPHIMURIUM, Strain/Indicator: TA1535, Metabolic Activation: NONE, Method: PREINCUBATION
Setting [9] is: Test System: AMES SALMONELLA TYPHIMURIUM, Strain/Indicator: TA1535, Metabolic Activation: RAT, LIVER, S-9, AROCLOR 1254 (10%), Method: PREINCUBATION
The mark [10] stands for this setting: Test System: AMES SALMONELLA TYPHIMURIUM, Strain/Indicator: TA1537, Metabolic Activation: NONE, Method: PREINCUBATION

Active and inactive are the calls of the source. No rule for the calls is given here.

The record followed here is PubChem BioAssay AID1259407 (Chemical Carcinogenesis Research Information System (CCRIS), 2018).

`O=[N+]([O-])c1ccc2c3ccccc3c3ccc([N+](=O)[O-])c4ccc1c2c43`: the mutagenic call is “active; positive” (End Point: In vitro micronucleus, Test System: CHL/IU cells, Metabolic Activation: None); “active; positive” (End Point: In vitro micronucleus, Test System: HepG2 cells, Metabolic Activation: None); “active; positive” (Test System: Chinese hamster lung cells/HPRT locus, Strain/Indicator: CHL/IU, Metabolic Activation: None); “active; positive” (Test System: Human liver cells/HPRT locus, Strain/Indicator: HepG2, Metabolic Activation: None).
Turning to `CCCCC(CC)COCCCN` (stereo unspecified), the mutagenic call is, setting by setting: (Test System: AMES SALMONELLA TYPHIMURIUM, Strain/Indicator: TA97, Metabolic Activation: HAMSTER, LIVER, S-9, AROCLOR 1254 (10%), Method: PREINCUBATION) “inactive; negative”; (Test System: AMES SALMONELLA TYPHIMURIUM, Strain/Indicator: TA97, Metabolic Activation: HAMSTER, LIVER, S-9, AROCLOR 1254 (30%), Method: PREINCUBATION) “inactive; negative”; (Test System: AMES SALMONELLA TYPHIMURIUM, Strain/Indicator: TA97, Metabolic Activation: NONE, Method: PREINCUBATION) “inactive; negative”; (Test System: AMES SALMONELLA TYPHIMURIUM, Strain/Indicator: TA97, Metabolic Activation: RAT, LIVER, S-9, AROCLOR 1254 (10%), Method: PREINCUBATION) “inactive; negative”; (Test System: AMES SALMONELLA TYPHIMURIUM, Strain/Indicator: TA97, Metabolic Activation: RAT, LIVER, S-9, AROCLOR 1254 (30%), Method: PREINCUBATION) “inactive; negative”; under setting [1], “inactive; negative”. Also, the mutagenic call is, setting by setting: (Test System: AMES SALMONELLA TYPHIMURIUM, Strain/Indicator: TA98, Metabolic Activation: HAMSTER, LIVER, S-9, AROCLOR 1254 (30%), Method: PREINCUBATION) “inactive; negative”; under setting [2], “inactive; negative”; under setting [3], “inactive; negative”; (Test System: AMES SALMONELLA TYPHIMURIUM, Strain/Indicator: TA98, Metabolic Activation: RAT, LIVER, S-9, AROCLOR 1254 (30%), Method: PREINCUBATION) “inactive; negative”; under setting [4], “inactive; negative”; (Test System: AMES SALMONELLA TYPHIMURIUM, Strain/Indicator: TA100, Metabolic Activation: HAMSTER, LIVER, S-9, AROCLOR 1254 (30%), Method: PREINCUBATION) “inactive; negative”. For the same molecule, the mutagenic call is “inactive; negative” under setting [5]; “inactive; negative” under setting [6]; “inactive; negative” (Test System: AMES SALMONELLA TYPHIMURIUM, Strain/Indicator: TA100, Metabolic Activation: RAT, LIVER, S-9, AROCLOR 1254 (30%), Method: PREINCUBATION); “inactive; negative” under setting [7]; “inactive; negative” (Test System: AMES SALMONELLA TYPHIMURIUM, Strain/Indicator: TA1535, Metabolic Activation: HAMSTER, LIVER, S-9, AROCLOR 1254 (30%), Method: PREINCUBATION); “inactive; negative” under setting [8]. The mutagenic call is “inactive; negative” under setting [9] and “inactive; negative” (Test System: AMES SALMONELLA TYPHIMURIUM, Strain/Indicator: TA1535, Metabolic Activation: RAT, LIVER, S-9, AROCLOR 1254 (30%), Method: PREINCUBATION).
As to `CC(=O)/C=C/C1=C(C)CCCC1(C)C`, the mutagenic call by setting is: under setting [1], “inactive; negative”; under setting [2], “inactive; negative”; under setting [3], “inactive; negative”; under setting [4], “inactive; negative”; under setting [5], “inactive; negative”; under setting [6], “inactive; negative”. The mutagenic call reads like this: under setting [7], “inactive; negative”; under setting [8], “inactive; negative”; under setting [9], “inactive; negative”; (Test System: AMES SALMONELLA TYPHIMURIUM, Strain/Indicator: TA1537, Metabolic Activation: HAMSTER, LIVER, S-9, AROCLOR 1254 (10%), Method: PREINCUBATION) “inactive; negative”; under setting [10], “inactive; negative”; (Test System: AMES SALMONELLA TYPHIMURIUM, Strain/Indicator: TA1537, Metabolic Activation: RAT, LIVER, S-9, AROCLOR 1254 (10%), Method: PREINCUBATION) “inactive; negative”. Also, the mutagenic call by setting is: (Test System: Ames Salmonella typhimurium, Strain/Indicator: TA97a, Metabolic Activation: None, Method: Preincubation) “inactive; negative”; (Test System: Ames Salmonella typhimurium, Strain/Indicator: TA97a, Metabolic Activation: None, Method: Standard plate) “inactive; negative”; (Test System: Ames Salmonella typhimurium, Strain/Indicator: TA97a, Metabolic Activation: Rat, Liver, S-9, Aroclor 1254, Method: Preincubation) “inactive; negative”; (Test System: Ames Salmonella typhimurium, Strain/Indicator: TA97a, Metabolic Activation: Rat, Liver, S-9, Aroclor 1254, Method: Standard plate) “inactive; negative”; (Test System: Ames Salmonella typhimurium, Strain/Indicator: TA98, Metabolic Activation: None, Method: Preincubation) “inactive; negative”; (Test System: Ames Salmonella typhimurium, Strain/Indicator: TA98, Metabolic Activation: None, Method: Standard plate) “inactive; negative”. Moreover, the mutagenic call by setting is: (Test System: Ames Salmonella typhimurium, Strain/Indicator: TA98, Metabolic Activation: Rat, Liver, S-9, Aroclor 1254, Method: Preincubation) “inactive; negative”; (Test System: Ames Salmonella typhimurium, Strain/Indicator: TA98, Metabolic Activation: Rat, Liver, S-9, Aroclor 1254, Method: Standard plate) “inactive; negative”; (Test System: Ames Salmonella typhimurium, Strain/Indicator: TA100, Metabolic Activation: None, Method: Preincubation) “inactive; negative”; (Test System: Ames Salmonella typhimurium, Strain/Indicator: TA100, Metabolic Activation: None, Method: Standard plate) “inactive; negative”; (Test System: Ames Salmonella typhimurium, Strain/Indicator: TA100, Metabolic Activation: Rat, Liver, S-9, Aroclor 1254, Method: Preincubation) “inactive; negative”; (Test System: Ames Salmonella typhimurium, Strain/Indicator: TA100, Metabolic Activation: Rat, Liver, S-9, Aroclor 1254, Method: Standard plate) “inactive; negative”. Moreover, the mutagenic call (Test System: Ames Salmonella typhimurium, Strain/Indicator: TA1535, Metabolic Activation: None, Method: Preincubation) was “inactive; negative”; the mutagenic call (Test System: Ames Salmonella typhimurium, Strain/Indicator: TA1535, Metabolic Activation: None, Method: Standard plate) is “inactive; negative”; the mutagenic call (Test System: Ames Salmonella typhimurium, Strain/Indicator: TA1535, Metabolic Activation: Rat, Liver, S-9, Aroclor 1254, Method: Preincubation) is “inactive; negative”; the mutagenic call (Test System: Ames Salmonella typhimurium, Strain/Indicator: TA1535, Metabolic Activation: Rat, Liver, S-9, Aroclor 1254, Method: Standard plate) was “inactive; negative”.
For the molecule `Cc1n[nH]c(=O)[nH]c1=O`, the mutagenic call reads like this: (Test System: AMES SALMONELLA TYPHIMURIUM, Strain/Indicator: TA98, Metabolic Activation: MAIZE SEEDLING, S-14, Method: PREINCUBATION) “inactive; negative”; (Test System: AMES SALMONELLA TYPHIMURIUM, Strain/Indicator: TA98, Metabolic Activation: MOUSE, LIVER, S-9, Method: PREINCUBATION) “inactive; negative”; under setting [2], “inactive; negative”; (Test System: AMES SALMONELLA TYPHIMURIUM, Strain/Indicator: TA100, Metabolic Activation: MAIZE SEEDLING, S-14, Method: PREINCUBATION) “inactive; negative”; (Test System: AMES SALMONELLA TYPHIMURIUM, Strain/Indicator: TA100, Metabolic Activation: MOUSE, LIVER, S-9, Method: PREINCUBATION) “inactive; negative”; under setting [5], “inactive; negative”. The mutagenic call runs as follows: under setting [8], “inactive; negative”; under setting [10], “inactive; negative”; (Test System: AMES SALMONELLA TYPHIMURIUM, Strain/Indicator: TA1538, Metabolic Activation: NONE, Method: PREINCUBATION) “inactive; negative”.
